Data published in patent US20230079100A1, “PROCESS FOR PREPARING SOLID FORMULATIONS COMPRISING A HYDROPHOBIC COMPOUND DISPERSIBLE IN A COLD LIQUID AND RELATIVE SOLID FORMULATIONS” (NUTRILINEA S.R.L., priority 2020, published 2023).

Tests used:
[1] = Visual evaluation of the degree of wettability of solid formulations poured into water; format: physicochemical; settings: for Visual degree of wettability of the solid formulation: process of the invention, fluid bed, 1.5 g in 100 ml water at room temperature
[2] = Static contact angle of ultrapure water on sample pelleted or deposited as film (Krüss Easy Drop); format: physicochemical; settings: 8 μL milliQ water drop, mean with standard deviation, 0 = complete wettability; for Contact angle on pellet: pelleted sample; for Contact angle on film (°): sample deposited as film
Method: 1.4 Contact angle measurements on hydrophobic substrates treated according to the process of the present invention (see section 1 of the experimental part).
The experimental measurements reported hereinafter relate to the study of the wettability characteristics of powdered samples before and after the process according to the present invention. The determination of the static contact angle of ultrapure water (also referred to as grade 1) was carried out on the surface of the sample pelleted or deposited in the form of film, according to methods known in the state of the art and as reported in [1] Nowak et al. Powder Technology 233 (2013) 52-64, e in [2] Bachmann and McHale, European Journal of Soil Science, 60 (2009) 420-430. The determinations were carried out using a Krüss Easy Drop instrument using drops of 8 μL of milliQ water. The behaviour of the drop in the first seconds from the deposition was analysed by recording 30-second video at 25 fps (frames per second): the contact angle considered is the equilibrium value or the final one at the end of the recording. Each sample was analysed both deposited in the form of film and pelleted and at least 3 independent contact angle determinations were carried out for each sample.
5 different types of powders were analysed; each of them was analysed both in the unmodified form thereof (as such) and after the process according to the present invention. In the case of the PEA (Palmitoylethanolamide) powder, a second batch of sample was analysed, for which only measurements on film were carried out. The results of the determinations are reported in Table IV: the mean contact angle value with standard deviation relative to the measurements on pellet and on film are reported. In case of complete wettability of the sample, an angle of 0° is reported. Overall, a greater correspondence of the wettability data measured on film with the dispersibility data observed experimentally (visual observation) is observed. This observation is in good agreement with the literature; the less representativeness of the measurements on pellets can be linked in some cases to absorption phenomena linked to the porosity of the pellet or to alterations of the surface free energy of the powder during pelletisation due to the applied pressure.

[3] = comparison process (A) dry mixing in a cube (1 kg), charging agent maltodextrin, 50%/50%
[4] = comparison process (A) dry mixing in a cube (1 kg), charging agent maltodextrin, 70%/30%
[5] = comparison process (A) dry mixing in a cube (1 kg), charging agent mannitol, 50%/50%
[6] = comparison process (A) dry mixing in a cube (1 kg), charging agent mannitol, 70%/30%
[7] = comparison process (A) dry mixing in a cube (1 kg), charging agent sugar, active/charging agent 50%/50%
[8] = comparison process (A) dry mixing in a cube (1 kg), charging agent sugar, active/charging agent 70%/30%
[9] = comparison process (B) wet granulations (1.5 kg), charging agent maltodextrin, 50%/50%
[10] = comparison process (B) wet granulations (1.5 kg), charging agent maltodextrin, 70%/30%
[11] = comparison process (B) wet granulations (1.5 kg), charging agent mannitol, 50%/50%
[12] = comparison process (B) wet granulations (1.5 kg), charging agent mannitol, 70%/30%
[13] = comparison process (B) wet granulations (1.5 kg), charging agent sugar, 50%/50%
[14] = comparison process (B) wet granulations (1.5 kg), charging agent sugar, 70%/30%
[15] = comparison process (C) wet granulation in a fluid bed granulator (1.5 kg), atomised water about 300-400 g, charging agent maltodextrin, 50%/50%
[16] = comparison process (C) wet granulation in a fluid bed granulator (1.5 kg), atomised water about 300-400 g, charging agent maltodextrin, 70%/30%
[17] = comparison process (C) wet granulation in a fluid bed granulator (1.5 kg), atomised water about 300-400 g, charging agent sugar, 50%/50%
[18] = comparison process (C) wet granulation in a fluid bed granulator (1.5 kg), atomised water about 300-400 g, charging agent sugar, 70%/30%
[19] = comparison process (C) wet granulation in a fluid bed granulator, atomised water about 300-400 g, charging agent mannitol, 50%/50%
[20] = comparison process (C) wet granulation in a fluid bed granulator, atomised water about 300-400 g, charging agent mannitol, 70%/30%
[21] = comparison process (D.a) granulation in a powder kneader (1 kg), active 90% w/w + liquid polysorbate 80 pure 10% w/w
[22] = comparison process (D.b) mixing in a cube (1 kg), active 90% w/w + powder sucrester 10% w/w
[23] = comparison process (E) wet granulation in a fluid bed granulator, active 90% + aqueous solution of polysorbate 80 at 10% w/w, 10%
[24] = solid substrate 90% w/w (900 g) + liquid polysorbate 80 pure at 100% 10% w/w (100 g)
[25] = solid substrate 93% w/w (930 g) + liquid polysorbate 80 pure at 100% 7% w/w (70 g)
[26] = solid substrate 95% w/w (950 g) + liquid polysorbate 80 pure at 100% 5% w/w (50 g)

| Compound | Visual degree of wettability of the active component [1, 3] | Visual degree of wettability of the active component [1, 4] | Visual degree of wettability of the active component [1, 5] | Visual degree of wettability of the active component [1, 6] | Visual degree of wettability of the active component [1, 7] | Visual degree of wettability of the active component [1, 8] | Visual degree of wettability of the active component [1, 9] | Visual degree of wettability of the active component [1, 10] | Visual degree of wettability of the active component [1, 11] | Visual degree of wettability of the active component [1, 12] | Visual degree of wettability of the active component [1, 13] | Visual degree of wettability of the active component [1, 14] | Visual degree of wettability of the active component [1, 15] | Visual degree of wettability of the active component [1, 16] | Visual degree of wettability of the active component [1, 17] | Visual degree of wettability of the active component [1, 18] | Visual degree of wettability of the active component [1, 19] | Visual degree of wettability of the active component [1, 20] | Visual degree of wettability of the active component [1, 21] | Visual degree of wettability of the active component [1, 22] | further results |
| --- | --- | --- | --- | --- | --- | --- | --- | --- | --- | --- | --- | --- | --- | --- | --- | --- | --- | --- | --- | --- | --- |
| CCCCCCCCCCCCCCCC(=O)NCCO [PEA, Palmitoylethanolamide] | Nil | Nil | Nil | Nil | Nil | Nil | Nil/low | Nil/low | Nil/low | Nil/low | Nil/low | Nil/low | Low/Sufficient | Low | Low/Sufficient | Low | Low/Sufficient | Low | Low/Sufficient | Nil | Visual degree of wettability of the active component [1, 23]: Low/Sufficient; Visual degree of wettability of the solid formulation [1, 24]: Excellent; Visual degree of wettability of the solid formulation [1, 25]: Fair; Visual degree of wettability of the solid formulation [1, 26]: Fair; Contact angle on pellet [2]: 72 ± 4 °; Contact angle on film (°) ([2]; listed as PEA as such): 117 ± 7 °; Contact angle on film (°) ([2]; listed as PEA as such second batch): 114 ± 5 ° |
| alpha-lactalbumin | Nil | Nil | Nil | Nil | Nil | Nil | Nil/low | Nil/low | Nil/low | Nil/low | Nil/low | Nil/low | Low/Sufficient | Low | Low/Sufficient | Low | Low/Sufficient | Low | Low/Sufficient | Nil | Visual degree of wettability of the active component [1, 23]: Low/Sufficient; Visual degree of wettability of the solid formulation [1, 24]: Excellent; Visual degree of wettability of the solid formulation [1, 25]: Fair; Visual degree of wettability of the solid formulation [1, 26]: Fair; Contact angle on pellet [2]: 61 ± 6 °; Contact angle on film (°) [2]: 69 ± 3 ° |
